Source: US20120131849A1, “METHOD FOR STORAGE OF SEEDS” (priority 2009, published 2012)

Tested on: seeds of Eustoma grandiflorum “F1 Mellow Violet”
Experiment: Germination rate test after storage of seeds in oily substance
Assay type: in vivo
Description: After a predetermined amount of culture soil (Metro-Mix350, manufactured by Scotts) was filled into a cell tray, 100 seeds were sown, and water sprinkling was performed as necessary. With regard to the light conditions, suitable conditions for each seed type were adopted. After sowing, the number of germinated seeds was measured over time, and the number of germinated seeds with respect to the 100 seeds was calculated as a germination rate (%).
The germination rate (%) obtained 10 days after sowing was particularly evaluated as germination vigor (%). The germination vigor is a measure of germination speed or whether germination is uniform, and higher germination vigor values mean faster and more uniform germination. In the case of seeds of a plant that takes long time to germinate, the number of days after sowing was changed as appropriate to obtain the germination vigor.
The germination rate (%) obtained 14 days after sowing was particularly evaluated as the final germination rate (%). In the case of seeds of a plant that takes long time to germinate, the number of days after sowing was changed as appropriate to obtain the final germination rate. […]
First, 0.01 g of seeds of Eustoma grandiflorum “F1 Mellow Violet” was placed in each of 1.5 mL test tubes. Subsequently, 1.5 mL of a medium-chain triglyceride was gently poured into each test tube, which was then capped. The seeds were completely immersed in the medium-chain triglyceride. The test tubes were stored at 4° C. or 25° C. in darkness for 6 months, 18 months, or 36 months, and afterward, the seeds were removed from the test tubes, and a germination rate test was performed. A germination rate test for Eustoma grandiflorum “F1 Mellow Violet” seeds immediately after purchasing was also performed at the same time.

| Compound | Germination rate (%) 10 days (germination vigor) (Stored at 4° C., 6 months) [%] | Germination rate (%) 14 days (final germination rate) (Stored at 4° C., 6 months) [%] | Germination rate (%) 10 days (germination vigor) (Stored at 4° C., 18 months) [%] | Germination rate (%) 14 days (final germination rate) (Stored at 4° C., 18 months) [%] | Germination rate (%) 10 days (germination vigor) (Stored at 4° C., 36 months) [%] | Germination rate (%) 14 days (final germination rate) (Stored at 4° C., 36 months) [%] | Germination rate (%) 10 days (germination vigor) (Stored at 25° C., 6 months) [%] | Germination rate (%) 14 days (final germination rate) (Stored at 25° C., 6 months) [%] | Germination rate (%) 10 days (germination vigor) (Stored at 25° C., 18 months) [%] | Germination rate (%) 14 days (final germination rate) (Stored at 25° C., 18 months) [%] | Germination rate (%) 10 days (germination vigor) (Stored at 25° C., 36 months) [%] | Germination rate (%) 14 days (final germination rate) (Stored at 25° C., 36 months) [%] |
| --- | --- | --- | --- | --- | --- | --- | --- | --- | --- | --- | --- | --- |
| CCCCCCCC(=O)O [Example 11, octanoic acid] | 93 | 93 | 96 | 96 | 95 | 95 | 93 | 93 | 91 | 93 | 90 | 93 |
| CCCCCCCCCCCO [Example 17, undecyl alcohol] | 94 | 96 | 94 | 94 | 90 | 92 | 94 | 95 | 95 | 94 | 89 | 92 |
| CCCC(=O)O [Example 10, butanoic acid] | 94 | 94 | 95 | 95 | 95 | 96 | 95 | 96 | 93 | 96 | 92 | 95 |
